Consider one substance from patent US9833497B2, “Human originated EGF domain proteins and use of the same” (CHENGDU SOURCEBIO LIMITED-LIABILITY COMPANY, priority 2013, dated 2017).

The subject of one assay is Citrobacter diversus. Put plainly: MIC against Gram-negative bacteria: Citrobacter diversus. In kind it is cell-based. As to conditions: Citrobacter diversus; 96-well plate, 5×10^5 CFU/mL, 37° C., 10 h. The method, boiled down:
(§1)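 Inocula prepared by growing LB cultures at 37° C to 0.5 McFarland, centrifuging at 4000×g, and resuspending in fresh medium. Final density 5×10^5 CFU/mL per well with two-fold dilutions of purified EGF domain protein; shaking incubation at 37° C.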

A further assay relates to Enterobacter cloacae. Put plainly: MIC against Gram-negative bacteria: Enterobacter cloacae. In kind it is cell-based. The conditions noted are these: Enterobacter cloacae; 96-well plate, 5×10^5 CFU/mL, 37° C., 10 h. The method, boiled down: as §1
The test system of another assay is Proteus mirabilis. In words: MIC against Gram-negative bacteria: Proteus mirabilis. In kind it is cell-based. As to conditions: Proteus mirabilis; 96-well plate, 5×10^5 CFU/mL, 37° C., 10 h. The method in brief:
as §1

A further assay deals with E. coli DH5α. In words: Antibacterial activity: MIC and growth curve against E. coli DH5α in 96-well plate. The assay is classed as cell-based. The method, boiled down: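 MIC taken as lowest protein level with no bacterial growth, tracked by A600 every 30 min during 37 °C, 175 rpm culture. Two-fold protein series 50-12.5 μg/mL final, triplicate wells, against 5×10^5 CFU/mL of LB-washed mid-log cells.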

The next assay deals with Moraxella catarrhalis. In words: MIC against Gram-negative bacteria: Moraxella catarrhalis. The assay is classed as cell-based. The conditions noted are these: Moraxella catarrhalis; 96-well plate, 5×10^5 CFU/mL, 37° C., 10 h. The method, boiled down:
as §1

The test system of a further assay is E. coli BL21. Put plainly: MIC against Gram-negative bacteria: E. coli BL21. As to conditions: E. coli BL21; 96-well plate, 5×10^5 CFU/mL, 37° C., 10 h. In kind it is cell-based. The method in brief:
as §1

The test system of a further assay is Aeromonas hydrophila. Put plainly: MIC against Gram-negative bacteria: Aeromonas hydrophila. In kind it is cell-based. As to conditions: Aeromonas hydrophila; 96-well plate, 5×10^5 CFU/mL, 37° C., 10 h. The method, boiled down: as §1
A further assay relates to Pseudomonas aeruginosa. In words: MIC against Gram-negative bacteria: Pseudomonas aeruginosa. In kind it is cell-based. As to conditions: Pseudomonas aeruginosa; 96-well plate, 5×10^5 CFU/mL, 37° C., 10 h. The method in brief:
as §1

The next assay has as its system Serratia marcescens. Put plainly: MIC against Gram-negative bacteria: Serratia marcescens. The assay is classed as cell-based. The conditions noted are these: Serratia marcescens; 96-well plate, 5×10^5 CFU/mL, 37° C., 10 h. The method in brief:
as §1

Another assay concerns Klebsiella pneumonia. Put plainly: MIC against Gram-negative bacteria: Klebsiella pneumonia. As to conditions: Klebsiella pneumonia; 96-well plate, 5×10^5 CFU/mL, 37° C., 10 h. The assay is classed as cell-based. The method, boiled down:
as §1

The test system of the next assay is Proteus vulgaris. In words: MIC against Gram-negative bacteria: Proteus vulgaris. The assay is classed as cell-based. The conditions noted are these: Proteus vulgaris; 96-well plate, 5×10^5 CFU/mL, 37° C., 10 h. The method in brief:
as §1

Assay [1] is described as follows: Silver staining detection of endotoxin (LPS) hydrolysis. The assay is classed as biochemical. As to conditions: E. coli EH100 LPS incubated overnight with protein, FIG. 28. How it is done: 1. The E. coli EH100 LPS (Sigma) samples were respectively incubated with the obtained human-originated EGF domain proteins (PRT1 to PRT1498 in Table 1) such as the recombination protein hF VII-EGF1, etc.; and the control group was the LPS sample incubated with TB S buffer. The incubation lasted overnight. Then, the centrifugation was performed to collect the pellet.
2. The 1×loading buffer for LPS (0.05 mol/L Tris-HCl, containing 10 g/L SDS, 100 g/L sucrose, 0.5% β-mercaptoethanol, 10 mg/L Bromophenol Blue, pH 6.8) was mixed with the sample of the treated pellet and incubated on a metal bath at 100° C. for 5 min.
3. 15% separating gel (containing 4 mol/L urea, Bio-Rad with a thickness of 1.0 mm, the detailed composition as follows: 1.15 mL of deionized water, 2.5 mL of 30% acrylamide, 1.3 mL of 1.5 mol/L Tris-HCl (pH 8.8, containing 10% SDS), 50 μl of 10% ammonium persulfate, 4 μl of TEMED) was mixed well and prepared. The top of the separating gel was overlaid with water.
4. 5% stacking gel was prepared as follows: 1.42 mL of deionized water, 0.33 mL of 30% acrylamide, 0.25 mL of 1 mol/L Tris-HCl (pH 6.8, containing 10% SDS), 20 μL of 10% ammonium persulfate, 2 μL of TEMED) were mixed well and poured. A ten-well comb was quickly inserted.
5. After the gel was prepared, the samples were loaded. Then, the gel was run at a voltage of 120 V to separate the samples. […]

Regarding “hF VII-EGF1: human coagulation factor VII-EGF1 domain protein, molecular weight about 3.9 kD, recombinant, released from RFP fusion by rTEV (DGDQCASSPCQNGGSCKDQLQSYICFCLPAFEGRNCE; listed as Homo sapiens)”, the “MIC (μg/mL) C. diversus” value in the assay on Citrobacter diversus came out at 12.5 µg/mL. The “MIC (μg/mL) E. cloacae” value against Enterobacter cloacae worked out at 12.5 µg/mL. Moreover, the “MIC (μg/mL) P. mirabilis” value with Proteus mirabilis is 25 µg/mL. The “MIC (minimal inhibitory concentration)” value against E. coli DH5α (E. coli DH5α, 5×10^5 CFU/mL, after 8 h of cultivation at 37° C.) is 12.5 µg/mL. In addition, in the assay with E. coli DH5α (growth curve (OD 600 nm), FIG. 27 / Table 2), the “inhibitory effect on the growth of E. coli DH5α” value is given as “significant inhibitory effect”. The MIC (in general, the least concentration at which growth counts as inhibited) against E. coli DH5α (minimal inhibitory concentration against E. coli DH5α, 96-well plate, 5×10^5 CFU/mL, 37° C., judged after 8 h) came out at 12.5 µg/mL. In addition, in the assay with Moraxella catarrhalis, the “MIC (μg/mL) M. catarrhalis” value was 25 µg/mL. Moreover, the “MIC (μg/mL) E. coli BL21” value in the assay on E. coli BL21 came to 12.5 µg/mL. In addition, in the assay with Aeromonas hydrophila, the “MIC (μg/mL) A. hydrophila” value was determined as 12.5 µg/mL. Also, the “MIC (μg/mL) P. aeruginosa” value against Pseudomonas aeruginosa was found to be 25 µg/mL. Moreover, in the assay on Serratia marcescens, the “MIC (μg/mL) S. marcescens” value was found to be 12.5 µg/mL. In addition, the “MIC (μg/mL) K. pneumonia” value in the assay with Klebsiella pneumonia was 25 µg/mL. Moreover, the “MIC (μg/mL) P. vulgaris” value with Proteus vulgaris was 12.5 µg/mL. The “hydrolysis of LPS (LPS band in silver staining)” value in assay [1] is on record as “eliminates the majority of LPS”.
